Experimental data taken from ChEMBL document CHEMBL2046407, “Synthesis and in vitro antitubercular activity of 4-aryl/alkylsulfonylmethylcoumarins as inhibitors of Mycobacterium tuberculosis” (2012).
≈ marks a conversion by molar mass, not a printed value.

Tested on: Mycobacterium tuberculosis
Assay: Antimycobacterial activity against Mycobacterium tuberculosis H37Rv by agar diffusion method
Type: functional

Point of comparison: `COc1ccc2c(CS(=O)(=O)c3ccc(C)cc3)cc(=O)oc2c1OC`, MIC 3.13 µg/mL (≈ 8.36 µM). Against it:
- O=c1cc(CS(=O)(=O)C2CCCCC2)c2ccccc2o1 — 2-fold higher, 6.25 µg/mL (≈ 20.4 µM)
- COc1ccc2c(CS(=O)(=O)c3ccc(Cl)cc3)cc(=O)oc2c1 — 2-fold higher, 6.25 µg/mL (≈ 17.1 µM)
- COc1ccc2c(CS(=O)(=O)c3nc4ccccc4o3)cc(=O)oc2c1OC — 4-fold lower, 0.78 µg/mL (≈ 1.94 µM)
- O=c1cc(CS(=O)(=O)c2ccc(Cl)cc2)c2ccccc2o1 — 4-fold higher, 12.5 µg/mL (≈ 37.3 µM)
- O=c1cc(CS(=O)(=O)c2nc3ccccc3o2)c2ccccc2o1 — 2.4-fold higher, 7.5 µg/mL (≈ 22 µM)
- NC(=O)c1cnccn1 [PYRAZINAMIDE] — 2-fold higher, 6.25 µg/mL (≈ 50.8 µM)
- COc1ccc2c(CS(=O)(=O)c3nc4ccccc4[nH]3)cc(=O)oc2c1OC — 2-fold higher, 6.25 µg/mL (≈ 15.6 µM)
- COc1ccc2c(CS(=O)(=O)c3ccc(C)cc3)cc(=O)oc2c1 — 4-fold higher, 12.5 µg/mL (≈ 36.3 µM)
- COc1ccc2c(CS(=O)(=O)c3ccccc3)cc(=O)oc2c1OC — 2-fold higher, 6.25 µg/mL (≈ 17.3 µM)
- CC[C@@H](CO)NCCN[C@@H](CC)CO [ETHAMBUTOL] — 2-fold lower, 1.56 µg/mL (≈ 7.64 µM)
- COc1ccc2c(CS(=O)(=O)c3ccccc3)cc(=O)oc2c1 — 4-fold higher, 12.5 µg/mL (≈ 37.8 µM)
- O=c1cc(CS(=O)(=O)c2ccccc2)c2ccccc2o1 — 2-fold higher, 6.25 µg/mL (≈ 20.8 µM)
- COc1ccc2c(CS(=O)(=O)C3CCCCC3)cc(=O)oc2c1 — 4-fold higher, 12.5 µg/mL (≈ 37.2 µM)
- COc1ccc2c(CS(=O)(=O)c3nc4ccccc4[nH]3)cc(=O)oc2c1 — 2-fold higher, 6.25 µg/mL (≈ 16.9 µM)
- Cc1ccc(S(=O)(=O)Cc2cc(=O)oc3ccccc23)cc1 — 4-fold higher, 12.5 µg/mL (≈ 39.8 µM)
- O=c1cc(CS(=O)(=O)c2nc3ccccc3[nH]2)c2ccccc2o1 — 1.9-fold lower, 1.61 µg/mL (≈ 4.73 µM)
- COc1ccc2c(CS(=O)(=O)c3nc4ccccc4o3)cc(=O)oc2c1 — 2-fold higher, 6.25 µg/mL (≈ 16.8 µM)
- COc1ccc2c(CS(=O)(=O)C3CCCCC3)cc(=O)oc2c1OC — 4-fold higher, 12.5 µg/mL (≈ 34.1 µM)
- COc1ccc2c(CS(=O)(=O)c3ccc(Cl)cc3)cc(=O)oc2c1OC — 2-fold lower, 1.56 µg/mL (≈ 3.95 µM)
